From publication PMC3743849, “A Yeast-Based Chemical Screen Identifies a PDE Inhibitor That Elevates Steroidogenesis in Mouse Leydig Cells via PDE8 and PDE4 Inhibition” (PLoS ONE, 2013)

Experiments:
[1] = system: PDE8 enzymes; design: method as in PMID 9671792, PMID 9784418; settings: ref [6], [11]; cited from earlier work
[2] = biological target: T1, human PDE7A (Homo sapiens, UniProt Q13946); test: In vitro PDE assay (Ba(OH)2 precipitation), PDE7A; assay type: biochemical; settings: for IC50: 10 nM cAMP substrate, mean ± SD of three independent experiments
T1 construct: purchased BIOMOL International

[3] = biological target: T2, human PDE4A10 (Homo sapiens, UniProt P27815); test: In vitro PDE assay (Ba(OH)2 precipitation), PDE4A; assay type: biochemical; settings: 50 nM cAMP substrate
T2 construct: gift from Dr. Hengming Ke

[4] = biological target: T3, rat PDE2A (Rattus norvegicus, UniProt Q01062); test: In vitro PDE assay (Ba(OH)2 precipitation), PDE2A; assay type: biochemical; settings: 1 µM cGMP substrate; mean ± SD of three independent experiments
T3 construct: purchased BPS Bioscience Inc
T3 sequence (Q01062 1-928): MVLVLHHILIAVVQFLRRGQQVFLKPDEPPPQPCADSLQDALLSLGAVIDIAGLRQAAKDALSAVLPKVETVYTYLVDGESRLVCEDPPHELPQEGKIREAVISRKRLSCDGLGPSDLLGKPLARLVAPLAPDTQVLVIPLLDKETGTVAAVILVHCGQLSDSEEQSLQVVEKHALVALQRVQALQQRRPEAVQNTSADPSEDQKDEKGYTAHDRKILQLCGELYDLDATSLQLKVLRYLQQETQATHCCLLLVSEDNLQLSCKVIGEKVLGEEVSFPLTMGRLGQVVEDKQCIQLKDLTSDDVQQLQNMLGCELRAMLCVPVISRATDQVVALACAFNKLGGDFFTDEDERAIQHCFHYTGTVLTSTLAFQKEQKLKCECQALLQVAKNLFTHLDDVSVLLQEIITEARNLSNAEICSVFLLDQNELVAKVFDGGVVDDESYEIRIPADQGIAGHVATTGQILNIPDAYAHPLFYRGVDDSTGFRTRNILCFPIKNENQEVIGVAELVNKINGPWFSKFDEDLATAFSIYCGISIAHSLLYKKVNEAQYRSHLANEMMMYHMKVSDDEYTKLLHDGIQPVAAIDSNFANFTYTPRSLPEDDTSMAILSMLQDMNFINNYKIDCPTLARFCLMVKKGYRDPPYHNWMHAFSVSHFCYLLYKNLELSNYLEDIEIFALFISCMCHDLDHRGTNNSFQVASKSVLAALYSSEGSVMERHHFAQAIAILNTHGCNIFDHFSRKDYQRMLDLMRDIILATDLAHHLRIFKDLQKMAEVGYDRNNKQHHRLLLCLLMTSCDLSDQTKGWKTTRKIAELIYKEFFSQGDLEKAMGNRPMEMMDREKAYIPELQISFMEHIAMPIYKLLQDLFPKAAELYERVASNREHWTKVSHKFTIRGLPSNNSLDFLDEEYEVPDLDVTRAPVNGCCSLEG
Experimental: (§1) In vitro PDE assays were performed as previously described, using the Ba(OH)2 precipitation assay, with recombinant human PDE1C, PDE3B, PDE5A1, PDE8A, PDE9A2, PDE10A1, PDE11A4 (BPS Bioscience Inc.), rat PDE2A (BPS Bioscience Inc.), human PDE7A (BIOMOL International), and human PDE4A10 enzymes (gift from Dr. Hengming Ke). Substrate concentrations were 120 nM cGMP (PDE1C), 1 µM cGMP (PDE2A), 30 nM cGMP (PDE3B), 50 nM cAMP (PDE4A), 520 nM cGMP (PDE5A), 10 nM cAMP (PDE7A), 10 nM cAMP (PDE8A), 70 nM cGMP (PDE9A), 40 nM cAMP (PDE10A), and 120 nM cGMP (PDE11A). Reactions were performed in 50 mM Tris·HCl (pH 8.5), 10 mM MgCl2 (for all enzymes except PDE8) or 4 mM MnCl2 (for PDE8A), and 5 mM dithiothreitol, and proceeded for 30 min for PDE8A, 6 min for PDE10A and 15 min for other PDEs, so that reactions were linear with time. Reactions were stopped with 200 µL 0.2 M ZnSO4, after which 5′-AMP was precipitated with 200 µL 0.25 N Ba(OH)2 by centrifugation for 15 min at 14000 rpm. The remaining radioactivity in the supernatant was measured in 4 mL of scintillation fluid. The amount of hydrolysis was generally limited to 30 percent conversion and IC50 values were calculated as the means of three independent experiments. Substrate concentrations were ≤0.1*Km for each enzyme, thus IC50 values approximate the Ki values.

[5] = biological target: T4, recombinant human PDE3B (Homo sapiens, UniProt Q13370); test: In vitro PDE assay (Ba(OH)2 precipitation), PDE3B; assay type: biochemical; settings: 30 nM cGMP substrate; three independent experiments
T4 construct: purchased BPS Bioscience Inc
Experimental: as §1

[6] = biological target: T5, recombinant human PDE8A (Homo sapiens, UniProt O60658); test: In vitro PDE assay (Ba(OH)2 precipitation), PDE8A; assay type: biochemical; settings: for IC50: 10 nM cAMP substrate
T5 construct: purchased BPS Bioscience Inc
Experimental: as §1

[7] = biological target: T6, recombinant human PDE5A1 (Homo sapiens, UniProt O76074); test: In vitro PDE assay (Ba(OH)2 precipitation), PDE5A; assay type: biochemical; settings: 520 nM cGMP substrate; mean ± SD of three independent experiments
T6 construct: purchased BPS Bioscience Inc
Experimental: as §1

[8] = biological target: T7, recombinant human PDE11A4 (Homo sapiens, UniProt Q9HCR9); test: In vitro PDE assay (Ba(OH)2 precipitation), PDE11A; assay type: biochemical; settings: 120 nM cGMP substrate; mean ± SD of three independent experiments
T7 construct: purchased BPS Bioscience Inc
Experimental: as §1

[9] = system: MA-10 Leydig tumor cells; test: Progesterone release from MA-10 Leydig tumor cells; assay type: cell-based, mouse; settings: 20 µM compound; 2 h
Experimental: MA-10 Leydig tumor cells were maintained in RPMI medium supplemented with 10% horse serum and seeded in 24 well plates to achieve 60–80% confluency after 2–3 days. Cells were washed with serum free medium twice and incubated in a 5% CO2 incubator at 37°C for 2 h. Following incubation, cells were treated with BC8-15, BC8-15A, or BC8-15C by replacing the media with 300 µL RPMI medium containing test compounds or vehicle. Media were collected after incubation for 2 h at 37°C. Progesterone levels in the media were measured using a progesterone ELISA kit (Neogen, Lexington, KY). Protein levels were determined by lysing cells in lysis buffer (50 mM Tris HCl (pH 7.5), 150 mM NaCl, 1% Triton X-100, 2 mM PMSF (supplemented with a Complete Protease Inhibitor Tablet (Roche, Nutley, NJ)) and measuring the protein concentration using a BCA protein assay kit (Pierce, Rockford, IL).

[10] = biological target: T8, recombinant human PDE9A2 (Homo sapiens, UniProt O76083); test: In vitro PDE assay (Ba(OH)2 precipitation), PDE9A; assay type: biochemical; settings: 70 nM cGMP substrate; three independent experiments
T8 construct: purchased BPS Bioscience Inc
Experimental: as §1

[11] = biological target: T9, recombinant human PDE10A1 (Homo sapiens, UniProt Q9Y233); test: In vitro PDE assay (Ba(OH)2 precipitation), PDE10A; assay type: biochemical; settings: 40 nM cAMP substrate; mean ± SD of three independent experiments
T9 construct: purchased BPS Bioscience Inc
Experimental: as §1

[12] = biological target: T10, recombinant human PDE1C (Homo sapiens, UniProt Q14123); test: In vitro PDE assay (Ba(OH)2 precipitation), PDE1C; assay type: biochemical; settings: 120 nM cGMP substrate; mean ± SD of three independent experiments
T10 construct: purchased BPS Bioscience Inc
Experimental: as §1

[13] = system: primary Leydig cells from PDE8A−/−/B−/− knock-out mice; test: Testosterone production from primary Leydig cells, PDE8A-/-/B-/- knock-out mice; assay type: cell-based, mouse; settings: 3 h, rolipram 20 µM, BC8-15 10 µM and 40 µM
Experimental: (§2) Leydig cells were isolated from testes of wild type and PDE8A^−/−/B^−/− knock-out adult mice as previously described. Digested tissue from decapsulated mouse testis was enriched for interstitial cells by filtration as previously described. Collected cells were resuspended in DMEM/F-12 medium supplemented with 1 mg/mL BSA and 150 µL aliquots were dispensed into 48-well plates. After permitting cells to recover at 37°C for 3 h, 30 µL of media with test compounds or vehicle was added to replicate wells. Media were collected after incubation for 3 h and stored at −20°C. Testosterone released into the media was measured by a testosterone ELISA kit (Neogen, Lexington, KY).

[14] = system: primary Leydig cells from wild type mice; test: Testosterone production from primary Leydig cells, wild type mice; assay type: cell-based, mouse; settings: 3 h, rolipram 20 µM, BC8-15 10 µM and 40 µM
Experimental: as §2

[15] = system: T11, murine PDE8A1; test: Yeast-based 5FOA growth HTS with PDE8A-expressing S. pombe strain CHP1204; assay type: cell-based; settings: Known Bioactives Collection screen
T11 construct: expressed in transfected cells; host or cells: Schizosaccharomyces pombe strain CHP1204 (PDE8A1 integrated at the cgs2 locus)
Experimental: Cyclic nucleotide-dependent growth in 5FOA medium was monitored in 50 µL cultures in 384-well microtiter plates (untreated, flat clear bottom). Cells were inoculated at an initial cell density of 0.5–2×10^5 cells/mL. Previously described optimized pre-growth conditions for each strain were used to repress the fbp1-ura4^+ reporter prior to inoculation into 5FOA medium, as cells that are already expressing the Ura4 enzyme would be 5FOA-sensitive even upon exposure to a PDE inhibitor [18]. Following a 48-h incubation at 30°C, plates were vortexed and optical densities (600 nm) were measured. The experiments with the PDE8A-expressing strain (CHP1204) were performed with 0.5 mM cAMP in the pre-growth medium and 40 µM cAMP in the 5FOA medium. […]
The suitability and quality of the assay conditions for high throughput screening was evaluated by a Z factor test as previously described, [23], using DMSO (0.2%) as a negative control, and either 5 mM cAMP, 10 µM BC69, or 20 µM BC69 as positive controls. […] After 48 h growth at 30°C, the optical density (OD600) of each well was measured using a plate reader. Composite Z scores were calculated for each compound by scaling the vector [Zscore_A, Zscore_B] by the cosine correlation with the diagonal (i.e. identical Z-scores in both replicates).

[16] = mean ± SD of three independent experiments

T10 sequence (Q14123 whole entry): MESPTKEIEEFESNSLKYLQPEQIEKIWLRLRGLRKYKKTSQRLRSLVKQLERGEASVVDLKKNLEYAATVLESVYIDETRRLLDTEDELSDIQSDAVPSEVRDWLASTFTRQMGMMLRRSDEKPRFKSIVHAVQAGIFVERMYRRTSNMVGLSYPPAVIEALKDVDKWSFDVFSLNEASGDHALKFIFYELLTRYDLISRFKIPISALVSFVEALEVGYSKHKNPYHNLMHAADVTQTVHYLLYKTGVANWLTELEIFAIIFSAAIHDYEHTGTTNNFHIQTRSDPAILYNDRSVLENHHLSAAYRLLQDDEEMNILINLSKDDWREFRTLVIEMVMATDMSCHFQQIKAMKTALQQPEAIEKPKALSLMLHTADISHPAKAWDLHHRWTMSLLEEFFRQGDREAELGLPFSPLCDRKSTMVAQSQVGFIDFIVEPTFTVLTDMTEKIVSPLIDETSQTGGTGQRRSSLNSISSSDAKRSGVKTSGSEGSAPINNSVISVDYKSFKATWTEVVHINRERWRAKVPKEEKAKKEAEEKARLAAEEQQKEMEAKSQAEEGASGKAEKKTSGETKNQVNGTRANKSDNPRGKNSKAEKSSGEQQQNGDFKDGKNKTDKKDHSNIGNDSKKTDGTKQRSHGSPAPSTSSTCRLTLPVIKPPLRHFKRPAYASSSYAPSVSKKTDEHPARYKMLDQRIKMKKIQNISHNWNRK
T8 sequence (O76083 1-533 isoform O76083-2): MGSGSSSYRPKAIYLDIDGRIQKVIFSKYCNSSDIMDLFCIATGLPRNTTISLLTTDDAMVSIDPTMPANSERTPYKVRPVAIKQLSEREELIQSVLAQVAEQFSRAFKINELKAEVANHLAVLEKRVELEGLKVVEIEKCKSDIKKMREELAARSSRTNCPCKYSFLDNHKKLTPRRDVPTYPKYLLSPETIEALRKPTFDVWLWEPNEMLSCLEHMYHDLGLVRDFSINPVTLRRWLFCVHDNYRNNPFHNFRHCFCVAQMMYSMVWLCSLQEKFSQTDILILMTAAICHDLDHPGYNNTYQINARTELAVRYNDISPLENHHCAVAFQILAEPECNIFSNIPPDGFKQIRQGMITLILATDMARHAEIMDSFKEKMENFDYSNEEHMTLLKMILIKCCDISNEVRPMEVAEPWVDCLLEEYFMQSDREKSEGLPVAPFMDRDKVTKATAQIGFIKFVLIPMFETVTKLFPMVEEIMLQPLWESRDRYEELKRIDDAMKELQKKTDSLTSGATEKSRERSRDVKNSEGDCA
T5 sequence (O60658 whole entry): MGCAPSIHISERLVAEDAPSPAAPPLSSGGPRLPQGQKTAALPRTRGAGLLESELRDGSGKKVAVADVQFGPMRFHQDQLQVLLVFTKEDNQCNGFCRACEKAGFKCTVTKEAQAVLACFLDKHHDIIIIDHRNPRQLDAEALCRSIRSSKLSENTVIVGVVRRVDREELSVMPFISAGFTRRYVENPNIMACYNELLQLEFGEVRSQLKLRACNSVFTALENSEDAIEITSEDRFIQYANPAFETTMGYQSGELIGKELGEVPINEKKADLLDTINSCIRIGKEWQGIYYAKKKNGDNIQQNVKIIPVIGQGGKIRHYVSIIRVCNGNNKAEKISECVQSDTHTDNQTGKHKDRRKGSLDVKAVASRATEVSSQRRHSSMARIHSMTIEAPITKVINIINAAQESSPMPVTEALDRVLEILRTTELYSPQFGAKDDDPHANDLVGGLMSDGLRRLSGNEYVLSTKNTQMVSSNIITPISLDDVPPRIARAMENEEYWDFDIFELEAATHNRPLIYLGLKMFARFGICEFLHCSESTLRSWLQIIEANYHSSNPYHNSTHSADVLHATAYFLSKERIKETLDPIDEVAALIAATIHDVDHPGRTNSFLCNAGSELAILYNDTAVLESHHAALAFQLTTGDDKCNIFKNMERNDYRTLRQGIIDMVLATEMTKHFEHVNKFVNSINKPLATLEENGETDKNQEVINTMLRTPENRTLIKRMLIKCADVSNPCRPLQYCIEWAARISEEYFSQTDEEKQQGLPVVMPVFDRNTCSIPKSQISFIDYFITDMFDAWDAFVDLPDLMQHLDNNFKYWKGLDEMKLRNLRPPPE
T9 sequence (Q9Y233 1-779 isoform Q9Y233-1): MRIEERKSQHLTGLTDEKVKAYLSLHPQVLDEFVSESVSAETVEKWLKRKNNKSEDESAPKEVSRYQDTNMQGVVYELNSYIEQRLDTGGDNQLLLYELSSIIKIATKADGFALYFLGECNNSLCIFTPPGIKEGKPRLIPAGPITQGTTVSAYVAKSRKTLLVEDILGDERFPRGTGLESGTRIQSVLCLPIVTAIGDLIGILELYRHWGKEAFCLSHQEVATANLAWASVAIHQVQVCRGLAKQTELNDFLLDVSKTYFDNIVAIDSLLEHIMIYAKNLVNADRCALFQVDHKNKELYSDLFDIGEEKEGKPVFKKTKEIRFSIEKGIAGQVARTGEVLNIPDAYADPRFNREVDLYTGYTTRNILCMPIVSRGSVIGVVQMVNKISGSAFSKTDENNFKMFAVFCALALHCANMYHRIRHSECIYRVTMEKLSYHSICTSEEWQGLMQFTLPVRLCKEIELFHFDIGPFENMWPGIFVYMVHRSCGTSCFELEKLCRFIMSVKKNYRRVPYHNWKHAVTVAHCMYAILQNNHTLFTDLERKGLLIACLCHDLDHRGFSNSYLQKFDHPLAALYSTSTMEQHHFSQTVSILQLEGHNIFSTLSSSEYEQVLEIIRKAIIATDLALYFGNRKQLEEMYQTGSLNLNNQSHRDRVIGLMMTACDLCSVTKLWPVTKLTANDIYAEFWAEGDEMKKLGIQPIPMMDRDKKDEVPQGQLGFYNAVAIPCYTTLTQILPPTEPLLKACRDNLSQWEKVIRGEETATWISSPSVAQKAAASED
T7 sequence (Q9HCR9 whole entry): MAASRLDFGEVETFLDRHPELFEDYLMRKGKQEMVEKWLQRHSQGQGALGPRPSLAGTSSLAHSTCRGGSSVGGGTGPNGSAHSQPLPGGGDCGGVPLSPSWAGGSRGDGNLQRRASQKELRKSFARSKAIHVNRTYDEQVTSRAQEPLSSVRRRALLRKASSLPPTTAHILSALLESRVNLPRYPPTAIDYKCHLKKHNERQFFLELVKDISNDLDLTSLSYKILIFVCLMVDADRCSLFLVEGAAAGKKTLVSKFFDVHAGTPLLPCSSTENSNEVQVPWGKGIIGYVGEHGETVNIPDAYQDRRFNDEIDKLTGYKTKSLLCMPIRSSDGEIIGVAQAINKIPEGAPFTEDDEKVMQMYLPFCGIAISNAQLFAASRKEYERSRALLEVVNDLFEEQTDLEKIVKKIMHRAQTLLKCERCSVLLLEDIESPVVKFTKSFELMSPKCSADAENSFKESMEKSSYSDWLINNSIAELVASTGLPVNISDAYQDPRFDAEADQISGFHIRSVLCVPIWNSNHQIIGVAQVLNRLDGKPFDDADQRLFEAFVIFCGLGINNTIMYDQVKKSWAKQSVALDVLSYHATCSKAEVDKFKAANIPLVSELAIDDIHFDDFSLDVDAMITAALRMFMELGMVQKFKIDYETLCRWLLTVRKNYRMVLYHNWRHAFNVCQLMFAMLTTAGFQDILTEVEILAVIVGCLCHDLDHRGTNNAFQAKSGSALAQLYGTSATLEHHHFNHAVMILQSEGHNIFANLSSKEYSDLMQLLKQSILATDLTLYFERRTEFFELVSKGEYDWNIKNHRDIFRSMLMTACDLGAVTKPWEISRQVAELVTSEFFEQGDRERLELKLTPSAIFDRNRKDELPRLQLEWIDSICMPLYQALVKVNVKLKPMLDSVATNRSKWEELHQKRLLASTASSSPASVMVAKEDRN
T1 sequence (Q13946 whole entry): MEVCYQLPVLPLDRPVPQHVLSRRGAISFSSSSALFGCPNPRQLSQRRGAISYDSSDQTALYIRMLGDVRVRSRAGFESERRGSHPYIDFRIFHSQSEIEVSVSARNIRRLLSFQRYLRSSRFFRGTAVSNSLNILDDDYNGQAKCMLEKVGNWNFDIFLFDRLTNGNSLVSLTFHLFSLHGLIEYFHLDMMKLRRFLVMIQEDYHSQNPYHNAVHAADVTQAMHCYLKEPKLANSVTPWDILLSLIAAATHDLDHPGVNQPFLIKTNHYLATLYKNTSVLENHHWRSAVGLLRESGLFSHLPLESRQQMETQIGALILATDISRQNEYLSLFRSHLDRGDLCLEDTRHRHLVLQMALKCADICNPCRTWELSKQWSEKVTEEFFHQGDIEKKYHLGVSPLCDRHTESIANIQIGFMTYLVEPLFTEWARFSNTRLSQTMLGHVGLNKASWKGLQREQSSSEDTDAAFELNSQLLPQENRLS

Row | Compound | IC50 [2] | IC50 [4] | IC50 [5] | IC50 [7] | IC50 [8] | increase in progesterone release compared to untreated cells [9] | IC50 [10] | IC50 [11] | IC50 [12] | other results
1 | CC(C)Cn1c(=O)n(C)c(=O)c2[nH]cnc21 [3-isobutyl-1-methylxanthine (IBMX), 3-isobutyl-1-methylxanthine] | – | – | – | – | – | – | – | – | – | sensitivity of PDE8 enzymes to inhibitor [1]: insensitive
2 | Cc1nnc2c3ccccc3nc(Nc3cccc(C(=O)O)c3)n12 [BC8-15A] | 8.88 ± 3.9 µM | 5.2 ± 2 µM | > 20 µM | > 20 µM | 1 µM | five-fold | > 20 µM | 2.3 ± 0.7 µM | > 20 µM | IC50 [3, 16]: 1.59 ± 0.1 µM; IC50 [6, 16]: 1.59 ± 0.3 µM
3 | CCc1nnc2c3ccccc3nc(Nc3cccc(C)c3)n12 [BC8-15C] | 14.2 ± 6.4 µM | > 20 µM | > 20 µM | > 20 µM | 0.08 ± 0.05 µM | little or no effect | > 20 µM | 1.5 ± 1.2 µM | > 20 µM | IC50 [6, 16]: 59.3 ± 14.2 µM
4 | CCc1nnc2c3ccccc3nc(Nc3cccc(C(=O)O)c3)n12 [BC8-15] | 6.46 µM | 15.7 ± 2.7 µM | > 20 µM | 16.7 ± 2.3 µM | 1.2 ± 0.7 µM | > 10 fold | > 20 µM | 1.6 ± 0.2 µM | 8.4 ± 3 µM | fold less activity against PDE7A (vs PDE8A/PDE4A) ([2]; ratio of IC50 values): 23 fold; IC50 [3]: 0.22 µM; increase in testosterone production [13]: two-fold increase; IC50 [6]: 0.28 µM; testosterone release [14]: dose-dependent elevation
5 | OCCN(CCO)c1nc(N2CCCCC2)c2nc(N(CCO)CCO)nc(N3CCCCC3)c2n1 [dipyridamole] | – | – | – | – | – | – | – | – | – | activity in PDE8A yeast growth screen [15]: no activity; sensitivity of PDE8 enzymes to inhibitor [1]: only weakly inhibited
6 | C[C@]12CC[C@H](O)C[C@@H]1CC[C@@H]1[C@@H]2CC[C@]2(C)C(=O)CC[C@@H]12 [epiandrosterone, reference compound] | – | – | – | – | – | – | – | – | – | composite Z score, 5FOA-resistant growth of PDE8A1-expressing strain ([15]; 40 µM cAMP in 5FOA medium, 48 h): 12.9; inhibition at 32 µM ([6]; 32 µM compound, data not shown): 17%
7 | COc1ccc(C2CNC(=O)C2)cc1OC1CCCC1 (stereo not shown) [rolipram, reference compound] | – | – | – | – | – | little or no effect | – | – | – | increase in testosterone production [13]: two-fold increase; testosterone release [14]: no response
